ChEMBL document CHEMBL4007392, “Modulating Mineralocorticoid Receptor with Non-steroidal Antagonists. New Opportunities for the Development of Potent and Selective Ligands without Off-Target Side Effects” (J Med Chem, 2017)

System: not listed separately
Test: Displacement of [3H]-Aldosterone from recombinant rhesus monkey MR expressed in baculovirus infected insect cells after 3 hrs by filter-based Topcount method
Parameters: species or system Macaca mulatta
With `Cc1cccc(Cn2ccnc2C(c2ccccc2)c2ccccc2)c1` the Ki was 0.134 µM.
`COc1cc(C2C(C(=O)Oc3ccccc3)=C(C)NC(C)=C2C(=O)Oc2ccccc2)ccc1O` gave a Ki of 0.0215 µM.
For `CCSC1=C(C#N)C(c2ccccc2Cl)C(C(=O)Nc2ccccc2OC)=C(C)N1` (configuration not stated), the Ki was 0.053 µM.
Work on `CC(c1ccccc1)n1ccnc1C(c1ccccc1)c1ccccc1` (configuration not stated) yielded a Ki of 0.285 µM.
Compound `CCCSC1=C(C#N)C(c2ccccc2Cl)C(C(=O)Nc2ccccc2OC)=C(C)N1` (configuration not stated) has a Ki of 0.0149 µM.
`COC(=O)C1=C(C)NC(C)=C(C(=O)OC)C1c1cccc2ccccc12` gave a Ki of 0.061 µM.

Target: T1, Mineralocorticoid receptor (Homo sapiens, UniProt P08235)
T1 sequence (P08235 whole entry): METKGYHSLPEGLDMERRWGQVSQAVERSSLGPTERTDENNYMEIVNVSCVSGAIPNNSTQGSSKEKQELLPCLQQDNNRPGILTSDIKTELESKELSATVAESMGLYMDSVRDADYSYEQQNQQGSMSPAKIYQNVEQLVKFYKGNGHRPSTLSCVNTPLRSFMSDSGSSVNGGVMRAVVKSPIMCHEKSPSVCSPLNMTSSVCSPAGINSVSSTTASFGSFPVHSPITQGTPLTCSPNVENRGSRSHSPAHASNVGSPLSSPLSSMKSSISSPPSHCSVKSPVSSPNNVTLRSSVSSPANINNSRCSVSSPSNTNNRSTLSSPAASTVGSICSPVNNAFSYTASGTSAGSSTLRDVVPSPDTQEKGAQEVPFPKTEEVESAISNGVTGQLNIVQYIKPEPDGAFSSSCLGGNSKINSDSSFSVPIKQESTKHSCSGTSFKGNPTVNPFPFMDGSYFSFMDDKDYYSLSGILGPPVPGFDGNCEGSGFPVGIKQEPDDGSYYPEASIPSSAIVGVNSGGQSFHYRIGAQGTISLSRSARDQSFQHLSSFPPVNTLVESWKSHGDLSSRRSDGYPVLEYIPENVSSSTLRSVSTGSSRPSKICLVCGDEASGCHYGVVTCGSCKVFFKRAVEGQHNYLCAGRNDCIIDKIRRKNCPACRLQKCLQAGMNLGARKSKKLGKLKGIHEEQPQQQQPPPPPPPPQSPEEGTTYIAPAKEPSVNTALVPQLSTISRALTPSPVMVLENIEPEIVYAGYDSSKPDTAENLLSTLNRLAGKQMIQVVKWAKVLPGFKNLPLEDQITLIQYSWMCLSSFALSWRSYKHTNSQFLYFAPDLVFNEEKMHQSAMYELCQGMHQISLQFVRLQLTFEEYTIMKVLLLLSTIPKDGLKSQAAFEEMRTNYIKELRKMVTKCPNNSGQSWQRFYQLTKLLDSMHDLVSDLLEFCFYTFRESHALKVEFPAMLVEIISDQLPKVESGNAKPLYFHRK
Test: Displacement of [3H]-Aldosterone from MR overexpressed in human 293 cells measured after overnight incubation by TopCount method
Assay type: cell-based
`CCC(CC)(c1ccc(Cl)cc1)c1c[nH]c2c(NS(C)(=O)=O)cccc12` gave a Ki of at most 0.5 µM.
Compound `CCC(CC)(c1ccc2ncsc2c1)c1c[nH]c2c(NS(C)(=O)=O)cccc12` has a Ki of at most 0.5 µM.
`CCC(CC)(c1cc2ccccc2o1)c1c[nH]c2c(NS(C)(=O)=O)cccc12` gave a Ki of at most 0.5 µM.
`CCC(CC)(c1ccccc1)c1c[nH]c2c(NS(C)(=O)=O)cccc12` gave a Ki of at most 0.5 µM.
`CCC(CC)(c1ccc(O)cc1)c1c[nH]c2c(NS(C)(=O)=O)cccc12` showed a Ki of at most 0.5 µM.
Compound `CCC(CC)(c1ccc2c(c1)OCCO2)c1c[nH]c2c(NS(C)(=O)=O)cccc12` has a Ki of at most 0.5 µM.

Target: Mineralocorticoid receptor (Homo sapiens, UniProt P08235, C808S)
Sequence (P08235 whole entry C808S, the tested form may be a part): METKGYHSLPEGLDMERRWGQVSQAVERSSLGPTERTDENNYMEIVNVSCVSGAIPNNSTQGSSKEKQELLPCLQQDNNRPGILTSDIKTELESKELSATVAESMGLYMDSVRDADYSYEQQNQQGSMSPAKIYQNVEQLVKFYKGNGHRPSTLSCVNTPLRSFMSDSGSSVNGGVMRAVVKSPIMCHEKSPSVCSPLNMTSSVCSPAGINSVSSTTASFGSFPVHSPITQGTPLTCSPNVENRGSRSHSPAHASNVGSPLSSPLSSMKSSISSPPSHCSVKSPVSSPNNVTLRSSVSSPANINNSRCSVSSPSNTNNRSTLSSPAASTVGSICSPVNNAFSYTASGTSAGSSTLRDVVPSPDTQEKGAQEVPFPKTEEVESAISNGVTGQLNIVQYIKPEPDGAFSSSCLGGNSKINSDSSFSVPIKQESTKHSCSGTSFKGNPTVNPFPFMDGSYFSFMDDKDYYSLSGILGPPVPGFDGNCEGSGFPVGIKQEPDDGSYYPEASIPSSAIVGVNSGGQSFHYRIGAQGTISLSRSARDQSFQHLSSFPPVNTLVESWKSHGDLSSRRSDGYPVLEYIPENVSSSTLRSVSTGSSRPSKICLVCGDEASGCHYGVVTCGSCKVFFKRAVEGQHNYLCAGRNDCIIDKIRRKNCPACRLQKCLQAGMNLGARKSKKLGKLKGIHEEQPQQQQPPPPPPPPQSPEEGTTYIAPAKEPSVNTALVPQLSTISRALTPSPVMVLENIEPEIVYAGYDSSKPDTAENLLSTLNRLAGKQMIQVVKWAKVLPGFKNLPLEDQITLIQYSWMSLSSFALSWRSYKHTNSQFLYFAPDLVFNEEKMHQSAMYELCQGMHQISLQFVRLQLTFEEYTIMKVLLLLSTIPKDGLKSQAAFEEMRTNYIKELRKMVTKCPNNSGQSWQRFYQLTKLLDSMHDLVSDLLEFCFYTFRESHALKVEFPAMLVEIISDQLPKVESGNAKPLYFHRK
Test: Binding affinity to N-terminal 6His-GST-tagged human MR LBD (727 to 984 residues) harboring C808S mutation expressed in Escherichia coli BL21DE3/corticosterone complex by AlphaScreen assay
Compound H-QEKHRILHKLLQNGN-OH has an IC50 of 4.6 µM.
With H-KENNALLRYLLDRDD-OH the IC50 was 1.4 µM.
In the case of `CC(C)C[C@H](NC(=O)[C@H](CC(C)C)NC(=O)[C@H](CCC(=O)O)NC(=O)[C@H](CO)NC(=O)[C@H](CS)NC(=O)[C@@H]1CCCN1C(=O)[C@H](CCCNC(=N)N)NC(=O)[C@@H](N)CCCNC(=N)N)C(=O)N[C@@H](CCCCN)C(=O)N[C@@H](Cc1ccc(O)cc1)C(=O)N[C@@H](CC(C)C)C(=O)N[C@H](C(=O)N[C@H](C(=O)N[C@@H](CC(N)=O)C(=O)N[C@@H](CC(=O)O)C(=O)O)[C@H](C)O)[C@H](C)O`, the IC50 is reported as 1.1 µM.
Work on `CC(C)C[C@H](NC(=O)[C@H](CO)NC(=O)[C@H](CCCCN)NC(=O)[C@H](CCC(N)=O)NC(=O)[C@H](CCC(N)=O)NC(=O)[C@H](C)N)C(=O)N[C@@H](CC(C)C)C(=O)N[C@@H](CCC(N)=O)C(=O)N[C@@H](CCC(N)=O)C(=O)N[C@@H](CC(C)C)C(=O)N[C@@H](CC(C)C)C(=O)N[C@H](C(=O)N[C@@H](CCC(=O)O)C(=O)O)[C@@H](C)O` yielded an IC50 of 0.9 µM.

Target: T1, Mineralocorticoid receptor
Test: Antagonist activity at Gal4-fused human MR LBD (734 to 985 residues) expressed in CHO-K1 cells after 5 to 6 hrs by luciferase reporter gene assay
Assay type: cell-based
For `CC1=C(C#N)C(c2cccc3c(=O)cc(C)oc23)C(C(=O)OC(C)C)=C(C)N1` (configuration not stated), the IC50 was 0.16 µM.
Work on `CCOc1nccc2c1C(c1ccc(C#N)cc1OC)C(C#N)=C(C)N2` (configuration not stated) yielded an IC50 of 0.1 µM.

Target: T2, Mineralocorticoid receptor (Rattus norvegicus, UniProt P22199)
T2 sequence (P22199 whole entry): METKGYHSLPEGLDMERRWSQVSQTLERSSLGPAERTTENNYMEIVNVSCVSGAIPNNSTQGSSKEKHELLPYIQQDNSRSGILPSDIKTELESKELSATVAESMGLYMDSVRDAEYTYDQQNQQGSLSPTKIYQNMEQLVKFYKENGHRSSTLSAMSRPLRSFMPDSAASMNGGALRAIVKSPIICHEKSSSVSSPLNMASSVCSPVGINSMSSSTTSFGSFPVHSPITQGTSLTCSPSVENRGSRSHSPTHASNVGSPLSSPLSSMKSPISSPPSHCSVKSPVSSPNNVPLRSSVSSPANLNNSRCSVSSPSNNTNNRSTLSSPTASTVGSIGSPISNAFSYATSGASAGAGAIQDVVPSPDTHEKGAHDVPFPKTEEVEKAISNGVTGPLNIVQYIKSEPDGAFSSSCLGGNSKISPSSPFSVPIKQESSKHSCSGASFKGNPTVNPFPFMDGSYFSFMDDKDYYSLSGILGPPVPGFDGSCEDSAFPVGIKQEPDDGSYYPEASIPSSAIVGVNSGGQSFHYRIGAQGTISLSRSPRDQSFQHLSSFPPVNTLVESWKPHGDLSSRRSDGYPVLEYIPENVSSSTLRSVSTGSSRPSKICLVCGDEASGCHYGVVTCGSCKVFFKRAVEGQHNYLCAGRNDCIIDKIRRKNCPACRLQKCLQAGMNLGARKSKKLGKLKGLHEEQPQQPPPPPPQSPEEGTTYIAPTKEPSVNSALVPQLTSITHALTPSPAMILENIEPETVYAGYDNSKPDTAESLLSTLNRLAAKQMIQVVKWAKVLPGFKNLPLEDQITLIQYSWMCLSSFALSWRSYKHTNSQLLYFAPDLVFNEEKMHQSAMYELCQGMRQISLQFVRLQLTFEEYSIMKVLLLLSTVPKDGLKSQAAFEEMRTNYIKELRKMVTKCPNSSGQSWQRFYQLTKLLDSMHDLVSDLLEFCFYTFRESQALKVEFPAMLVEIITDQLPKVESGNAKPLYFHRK
Test: Displacement of [3H]-Aldosterone from MR in Sprague-Dawley rat kidney cytosolic fraction measured after overnight incubation by liquid scintillation counting method
For `Cc1cc(Cl)ccc1C1=CC(C)(C)Oc2cc(NS(C)(=O)=O)ccc21`, the IC50 was under 0.5 µM.
For `CC1(C)N=C(c2ccc(Cl)cc2)c2ccc(NS(C)(=O)=O)cc2O1`, the IC50 was under 0.5 µM.
In the case of `CC1=C(c2ccc(F)cc2)c2ccc(NS(C)(=O)=O)cc2OC1(C)C`, the IC50 is reported as under 0.5 µM.
In the case of `Cc1cc(NS(C)(=O)=O)cc2c1C(c1ccc(F)cc1)=NC(C)(C)O2`, the IC50 is reported as under 0.5 µM.

Target: T3, Mineralocorticoid receptor (Homo sapiens) (UniProt P08235)
T3 sequence (whole entry): T1 sequence (P08235 whole entry)
Test: Antagonist activity at full-length human MR expressed in CHO-K1 cells assessed as inhibition of aldosterone-induced response measured after overnight incubation by luminesence analysis
Assay type: cell-based
Work on `CCC(c1ccc(C(F)(F)F)cc1)(C(O)C(F)F)n1ncc2c(NS(=O)(=O)CC)cc(F)cc21` (configuration not stated) yielded an Inhibitory potency of 0.011 µM.
`CCC(O)C(CC(F)F)(c1ccc(C(F)(F)F)cc1)n1ncc2c(NS(C)(=O)=O)cccc21` (configuration not stated) gave an Inhibitory potency of 0.015 µM.
`CCC(O)C(CC)(c1ccc(Br)cc1)n1ncc2c(NS(C)(=O)=O)cccc21` (configuration not stated) gave an Inhibitory potency of 0.003 µM.
In the case of `CCC(O)C(CC)(c1ccc(C(F)(F)F)cc1)n1ncc2c(NS(C)(=O)=O)cc(F)cc21` (configuration not stated), the Inhibitory potency is reported as 0.009 µM.
Work on `CCC(c1ccc(C(F)(F)F)cc1)(C(O)C(F)F)n1ncc2c(NS(=O)(=O)CC)cccc21` (configuration not stated) yielded an Inhibitory potency of 0.004 µM.
